This is an account of results in patent US4400394A, “Benzylidene derivatives” (priority 1975, dated 1983).

Structures are written as SMILES.

For series [1], the system named is convulsions induced by bicuculline in mice. Nature of the series: Antagonism to convulsions induced by bicuculline in mice (anti-bicuculline activity). Format: in vivo. Particulars: Mus musculus, ip, intraperitoneal, dose which protects 50% of the animals against the effect of bicuculline, read-out: Anti-bicuculline activity, AD 50 (intraperitoneal administration). As to the method: II. GABA-animetic activity of the compounds (I)
The experimental method of Curtis, D. R., et al., Brain Res., 1971, 33, 57 and Perez de la Mora, N., Biochem. Pharmacol., 1973, 22, 2,635, was used.
The 50% active doses (AD 50), namely the doses which protect 50% of the animals against the effect of bicuculline, were evaluated for the substances studied.

Series [2] in a line: Acute toxicity in mice (LD 50, intraperitoneal). Particulars: mouse, in vivo, ip, CD1 mice, deaths recorded 48 hours after administration, determined graphically. As to the method:
I. Acute toxicity in mice
The compounds of the invention and the reference substances were administered intraperitoneally to CD1 mice. The 50% lethal dose (LD 50) was determined graphically. The number of dead animals 48 hours after intraperitoneal administration was recorded.

The conditions of series [3]: oral or parenteral administration; cited from earlier work.
For a further series, the system named is epilepsy. Particulars: cited from earlier work.

By LD50 is commonly meant the dose expected to kill half of the subjects tested. `CC(C)NC(=O)CCCN=C(c1ccccc1)c1cc(F)ccc1O` [76,031]: the ED50 in series [1] amounted to 500 mg/kg. In series [2], this compound gave an LD50 at 48 h above 2000 mg/kg.

As to `O=C(O)CCCCCN=C(c1ccccc1)c1ccccc1O` [75,074], the ED50 in series [1] stood at 300 mg/kg. In series [2], this compound yielded an LD50 at 48 h of 750 mg/kg.

With `O=C(O)CCCCCN=C(c1ccccc1)c1cc(F)ccc1O` [75,059], the ED50 in series [1] stood at 200 mg/kg. Further, the LD50 at 48 h in series [2] was determined as 800 mg/kg.

On to `NC(=O)CCCN=C(c1ccc(F)cc1)c1cc(F)ccc1O` [75,166], for which the ED50 in series [1] was 180 mg/kg. This compound also yielded an LD50 at 48 h in series [2] above 2000 mg/kg.

Regarding `COc1ccc(C(=NCCCC(=O)O)c2ccc(Cl)cc2)c(O)c1` [75,118], the ED50 in series [1] worked out at 225 mg/kg. The same compound came in with an LD50 at 48 h in series [2] of 525 mg/kg.

As to `O=C(O)CCCN=C(c1cc(F)ccc1O)c1ccccc1Cl` [75,027], in series [1], the ED50 is 125 mg/kg. Also, in series [2], the LD50 at 48 h was determined as 375 mg/kg.

For the compound `NC(=O)CCCN=C(c1cc(F)ccc1O)c1ccccc1Cl` [76,086], in series [1], the ED50 stood at 50 mg/kg. The LD50 at 48 h in series [2] was 235 mg/kg.

On to `O=C(O)CCCCCCCN=C(c1ccccc1)c1ccccc1O` [75,100], for which the ED50 in series [1] came out at 300 mg/kg. The compound further had an LD50 at 48 h in series [2] of 600 mg/kg.

`O=C(O)CCCN=C(c1ccccc1)c1cc(Cl)ccc1O` [75,005]: in series [1], the ED50 amounted to 120 mg/kg. The same compound displayed an LD50 at 48 h in series [2] of 350 mg/kg.

Regarding `O=C(O)CCCCCCCCCCN=C(c1ccccc1)c1ccccc1O` [75,075, Sodium 11-N-(α-phenyl-2-hydroxy-benzylidenyl)-amino-undecamoate], the ED50 in series [1] stood at 100 mg/kg. The same compound returned an LD50 at 48 h in series [2] of 210 mg/kg.

Turning to `O=C(CCCN=C(c1ccccc1)c1cc(F)ccc1O)NC1CCC1` [76,030], the ED50 in series [1] is 200 mg/kg. Moreover, the LD50 at 48 h in series [2] was above 2000 mg/kg.

As for `Cc1ccccc1C(=NCCCC(=O)O)c1cc(F)ccc1O` [75,029], the ED50 in series [1] was 250 mg/kg. For the same compound, the LD50 at 48 h in series [2] came to 475 mg/kg.

As for `O=C(O)CCCCCCCCCCN=C(c1ccccc1)c1cc(F)ccc1O` [75,054], the ED50 in series [1] came to 130 mg/kg. In series [2], this compound gave an LD50 at 48 h of 300 mg/kg.

In the case of `O=C(O)CCCCN=C(c1ccccc1)c1ccccc1O` [75,006], in series [1], the ED50 was determined as 250 mg/kg. The compound also had an LD50 at 48 h in series [2] of 700 mg/kg.

As to `CCCCN(CCCC)C(=O)CCCN=C(c1ccccc1)c1cc(F)ccc1O` [76,023], in series [1], the ED50 came out at 300 mg/kg. The same compound showed an LD50 at 48 h in series [2] of 1700 mg/kg.

Turning to `CCOC(=O)CCCNC(=O)CCCN=C(c1ccccc1)c1cc(F)ccc1O` [75,168], the ED50 in series [1] was determined as 500 mg/kg. The compound further had an LD50 at 48 h in series [2] of 975 mg/kg.

Regarding `O=C(CCCN=C(c1ccccc1)c1cc(F)ccc1O)NCc1ccccc1` [76,013], the ED50 in series [1] was determined as 200 mg/kg. In addition, the LD50 at 48 h in series [2] was above 2000 mg/kg.

On to `O=C(CCCN=C(c1ccccc1)c1cc(F)ccc1O)NC1CC1` [76,010], for which the ED50 in series [1] was 250 mg/kg. This compound had an LD50 at 48 h in series [2] of 1250 mg/kg.

Turning to `NC(=O)CCCN=C(c1ccccc1)c1cc(F)ccc1O` [75,167], the ED50 in series [1] worked out at 100 mg/kg. Also, the LD50 at 48 h in series [2] is above 2000 mg/kg.

With `O=C(CCCN=C(c1ccccc1)c1cc(F)ccc1O)NC1CCCC1` [76,011], the ED50 in series [1] was found to be 365 mg/kg. This compound gave an LD50 at 48 h in series [2] above 2000 mg/kg.

In the case of `O=C(O)CCCN=C(c1ccccc1O)c1ccccc1Cl` [75,078], the ED50 in series [1] turned out to be 110 mg/kg. The same compound had an LD50 at 48 h in series [2] of 350 mg/kg.

Consider `O=C(O)CCCN=C(c1ccccc1O)c1ccccc1F` [75,046], for which the ED50 in series [1] is 225 mg/kg. In series [2], this compound gave an LD50 at 48 h of 675 mg/kg.

Consider `Cc1ccc(O)c(C(=NCCCC(=O)O)c2ccccc2F)c1` [75,053], for which the ED50 in series [1] stood at 125 mg/kg. Moreover, the LD50 at 48 h in series [2] turned out to be 600 mg/kg.

As to `CCCC(CCN=C(c1ccccc1)c1cc(F)ccc1O)C(=O)O` (stereo not drawn) [76,085], the ED50 in series [1] was 170 mg/kg. In series [2], this compound displayed an LD50 at 48 h of 340 mg/kg.

As to `O=C(O)CCCN=C(c1cc(F)ccc1O)c1ccccc1F` [75,017], in series [1], the ED50 came to 175 mg/kg. For the same compound, in series [2], the LD50 at 48 h came to 525 mg/kg.

For the compound `COc1ccc(C(=NCCCC(=O)O)c2ccccc2)c(O)c1` [75,107], the ED50 in series [1] was 450 mg/kg. Further, the LD50 at 48 h in series [2] is 950 mg/kg.

Regarding `Cc1ccc(O)c(C(=NCCCC(=O)O)c2ccccc2Cl)c1` [75,136], in series [1], the ED50 was 110 mg/kg. In series [2], this compound gave an LD50 at 48 h of 350 mg/kg.

For `NC(=O)CN=C(c1ccccc1)c1cc(F)ccc1O` [75,083], the ED50 in series [1] stood at 175 mg/kg. Besides, in series [2], the LD50 at 48 h was 650 mg/kg.

Take `O=C(O)CCN=C(c1ccccc1)c1ccccc1O` [75,019]: the ED50 in series [1] was 425 mg/kg. Further, the LD50 at 48 h in series [2] is 830 mg/kg.

With `CN(C)C(=O)CCCN=C(c1ccccc1)c1cc(F)ccc1O` [76,022], the ED50 in series [1] was 350 mg/kg. This compound also gave an LD50 at 48 h in series [2] of 1400 mg/kg.

For the compound `O=C(O)CCCN=C(c1ccccc1)c1cc(F)ccc1O` [75,010, Sodium 4-N-(α-phenyl-5-fluoro-2-hydroxy-benzylidenyl)-amino-butyrate], the ED50 in series [1] was found to be 125 mg/kg. The same compound had an LD50 at 48 h in series [2] of 600 mg/kg.

For `O=C(O)CCCCN=C(c1ccccc1)c1cc(F)ccc1O` [SL 75,106], the ED50 in series [1] came out at 120 mg/kg. The LD50 at 48 h in series [2] amounted to 600 mg/kg.

As to `NC(=O)CCCN=C(c1ccc(Cl)cc1)c1cc(F)ccc1O` [76,002, 4-[(4-Chlorophenyl)-5-fluoro-2-hydroxy-benzylidenyl]-amino-butyramide], in series [1], the ED50 was 65 mg/kg. This compound showed an LD50 at 48 h in series [2] of 900 mg/kg.

Regarding `NC(=O)CN1CCCC1=O` [PIRACETAM, reference compound], in series [1], the ED50 was found to be 500 mg/kg. Moreover, in series [2], the LD50 at 48 h was above 4000 mg/kg.

Regarding `O=C(O)CCCN=C(c1ccc(F)cc1)c1cc(F)ccc1O` [75,045, Sodium 4-N-[α-(4-fluorophenyl)-5-fluoro-2-hydroxy-benzylidenyl]-amino-butyrate], in series [1], the ED50 was 125 mg/kg. In series [2], this compound showed an LD50 at 48 h of 650 mg/kg.

On to `NC(=O)CCCN=C(c1cccc(Cl)c1)c1cc(F)ccc1O` [76,091], for which the ED50 in series [1] worked out at 300 mg/kg. In series [2], the LD50 at 48 h was 600 mg/kg.

In the case of `O=C(O)CCCN=C(c1ccc(Cl)cc1)c1cc(F)ccc1O` [75,102], the ED50 in series [1] came out at 65 mg/kg. In series [2], this compound yielded an LD50 at 48 h of 500 mg/kg.

Consider `NCCCC(=O)O` [GABA, γ-Aminobutyric acid], for which, in series [1], the ED50 is above 4000 mg/kg. In series [2], the LD50 at 48 h was above 4000 mg/kg. In addition, the “crossing of the blood-brain barrier (in words)” value in series [3] is on record as “does not easily cross the blood-brain barrier”. Further, in the series on epilepsy (administration of GABA), the “side-effects (in words)” value was “substantial sideeffects (hypotension, bradycardia, and sedation)”. For the same compound, the “use in epilepsy (in words)” value in the series on epilepsy (some cases of epilepsy, very large quantities needed) is on record as “used with success in some cases of epilepsy”.

For the compound `O=C(CCCN=C(c1ccccc1)c1cc(F)ccc1O)Nc1ccccc1` [76,012], the ED50 in series [1] was found to be 500 mg/kg. Moreover, in series [2], the LD50 at 48 h was above 2000 mg/kg.

As for `O=C(O)CCCN=C(c1ccccc1)c1ccccc1O` [SL 74,227], the ED50 in series [1] was 500 mg/kg. Further, the LD50 at 48 h in series [2] stood at 975 mg/kg.

With `NC(=O)CN=C(c1ccccc1)c1ccccc1O` [75,037], the ED50 in series [1] worked out at 20 mg/kg. This compound also had a median lethal dose (LD50) at 48 h in series [2] of 1350 mg/kg.

For the compound `O=C(O)CCCN=C(c1cccc(F)c1)c1cc(F)ccc1O` [75,044, Sodium 4-N-[α-(3-fluorophenyl)-5-fluoro-2-hydroxy-benzylidenyl]-amino-butyrate], the ED50 in series [1] amounted to 250 mg/kg. The same compound showed an LD50 at 48 h in series [2] of 850 mg/kg.
